# Results: US20220296628A1, “RNA COMBINATIONS AND COMPOSITIONS WITH DECREASED IMMUNOSTIMULATORY PROPERTIES” (CureVac AG, priority 2019, published 2022)
# Assays:
# [1] = test system: human peripheral blood mononuclear cells (PBMCs); assay: PBMC stimulation: DOTAP co-transfection of capped PpLuc mRNA with oligonucleotide, cytokines by CBA; assay type: cell-based; conditions: DOTAP co-transfection with capped PpLuc mRNA 1 μg/ml, oligonucleotide 0.25 μg/ml (25% weight), supernatant 24 hours, compared to PpLuc mRNA only (FIG. 1B)
# Method: Human peripheral blood mononuclear cells (PBMCs) were isolated from heparinized blood of healthy volunteers by standard Ficoll-Hypaque density gradient centrifugation (Ficoll 1.078 g/ml). PBMCs were re-suspended in RPMI 1640 supplemented with 10% heat-inactivated FCS. After counting, cells are re-suspended at 50 million cells per ml in fetal calf serum, 10% DMSO, and frozen. Before usage, the cells are thawed.
# For transfection experiments, 2×10^5 human PBMCs per well were seeded into each well of a 96-well plate in X-Vivo 15 medium (Lonza). For preparation of DOTAP complexes containing both immunostimulatory non-coding RNA and a 2′-O-methylated oligonucleotide (SEQ ID NO: 85), the oligonucleotide was first added to immunostimulatory non-coding RNA at a weight percentage of 25%. For preparation of DOTAP complexes containing both PpLuc mRNA and a 2′-O-methylated oligonucleotide, the oligonucleotide was first added to PpLuc mRNA at a weight percentage of 25%. The molar ratio of PpLuc mRNA to oligonucleotide was thus […] (MW (Oligonucleotide)=2907 g/mol, MW (PpLuc mRNA)=652377 g/mol). DOTAP complexes containing either immunostimulatory non-coding RNA or PpLuc mRNA without or with oligonucleotide were formed at a ratio of 3 μl of DOTAP per 1 μg of RNAdjuvant or 1 μg of mRNA. […] To quantify background stimulation, PBMC were incubated either with DOTAP alone (“vehicle”) or medium only. […]
# In supernatants collected from PBMC stimulated without or with 2-O-methylated oligonucleotide, the concentrations of IFN-α, IFN-γ, TNF, were measured by Cytometric Bead Array (CBA) according to the manufacturer's instructions (BD Biosciences) using the following kits: Human Soluble Protein Master Buffer Kit (catalog no. 558264), Assay Diluent (catalog no. 560104), Human IFN-α Flex Set (catalog no. 560379), Human IFN-γ Flex Set (catalog no. 558269), Human TNF Flex Set (catalog no. 560112); all kits from BD Biosciences. The data was analyzed using the FCAP Array v3.0 software (BD Biosciences).
# mice (strain 129SV) = assay: In vivo bioluminescence imaging of PpLuc expression after i.v. injection of LNP-formulated PpLuc mRNA with or without oligonucleotide; set-up: species or system mouse; conditions: 24 hours post single i.v. injection, 10 μg or 30 μg of mRNA (either dose), oligo 20% or 6.7% mass, compared to PpLuc mRNA without Gm18 (FIG. 2)
# Method: For preparation of Lipid nanoparticles (LNP) containing both PpLuc mRNA and 2-O-methylated oligonucleotide, first the 2′-O-methylated oligonucleotide was added to PpLuc mRNA at a weight percentage of either 20% or 6.7% (see Table 3). LNP containing PpLuc mRNA either with or without admixture of 2-O-methylated oligonucleotide were prepared using cationic lipid, cholesterol, PEG-lipid and a neutral lipid. The mRNA was diluted to 1 g/L in citrate buffer, pH 4. The ethanolic lipid solution was mixed with the aqueous RNA solution at a ratio of 1:3 (vol/vol) using a Nanoassemblr (PrecisionNanoSystems). The ethanol was then removed and the buffer replaced by 10 mM HEPES, pH 7.4 comprising 9% Sucrose by dialysis. Finally, the LNP-formulated RNA was adjusted to 0.2 g/L. For in vivo experiments, 8 weeks old female mice (around 25 g, strain 129SV) were injected with the various LNP formulations (see tables 4 and 5). 4 animals were used per group. 10 μg or 30 μg of mRNA formulated with or without 2′-O-methylated oligonucleotide were intravenously injected at a concentration of 0.2 g/l. Bioluminescence imaging was performed 6 hours and 24 hours post LNP injection. […] PpLuc expression was quantified from bioluminescence images recorded for 3 minutes starting 5 minutes after i.v. injection of 3 mg of luciferin (see Table 5).
substance,measurement,setting,value
"5′-GAG CGmG CCA-3′ (GAGCNGCCA; 2'-O-methyl guanosine at position 5; 9mer oligonucleotide; modified_base (5)..(5) n can be any nucleotide, wherein the nucleotide is 2-O-methylated, preferably a 2-O-methylated guanosine) [Gm18, 9-mer 2′-O-methylated RNA oligonucleotide; position 5 is 2′-O-methylated guanosine (Gm); antagonist of TLR7 and 8]",secretion of cytokine INF-a,[1],reduced secretion
same,secretion of cytokine INF-y,[1],reduced secretion
same,secretion of cytokine TNF,[1],reduced secretion
same,expression of PpLuc (bioluminescence imaging),mice (strain 129SV),increases the expression
